Measured values published in patent US10053455B2, “Diazaspiroalkaneone-substituted oxazole derivatives as spleen tyrosine kinase inhibitors” (AB SCIENCE, priority 2014, dated 2018).

Experiments:
[1] = system: murine model of asthma; test: Mouse model of asthma: eosinophils recruitment in bronchio-alveolar lavage; assay type: in vivo, Balb/c male mice
Protocol: Balb/c male mice, 8 weeks old, were purchased from Janvier (Le Genest-Saint-Isle; FRANCE) and bred in the animal facility for 4 weeks. Drugs were dissolved in drinking solvent (80% water; 10% Tween 80 and 10% isopropanediol). It was aliquoted and stored at −20° C. Each mouse received drugs twice a day. The weight of animals was calculated before and after treatment.
Mice, 9 weeks of age, were sensitized with 50 μg of ovalbumin (Sigma-Aldrich, Germany) adsorbed to 2 mg Al(OH)3 (Prolabo, France) and diluted in physiological saline (0.9% NaCl). Ovalbumin was injected intraperitoneally on days 1 and 7. Sensitization was followed by intranasal challenges with 10 μg of ovalbumin diluted in 0.9% NaCl, each day from day 18 to day 21. On days 17 to 21, animals treated with drugs received 100 μl of a solution at 15 mg/ml, at 7.5 mg/ml or at 3.75 mg/ml administered per os twice a day during 5 days. These treatments corresponded to concentration of 60 mg/mouse kg, 30 mg/mouse kg and 15 mg/mouse kg respectively.
Bronchio-alveolar lavage (BAL) was performed after the animals were disconnected from the FlexiVent®. The airways were lavaged with 5 ml (10 times 0.5 ml) ice cold 0.9% NaCl 2.6 mM EDTA. BAL samples were centrifuged at 1200 rpm for 5 minutes at 4° C. Pellet cells were collected and erythrocytes lysed by adding 1.5 ml deionized water for 30 seconds. After neutralization with 0.5 ml of 0.6M KCl, cells were centrifuged at 1200 rpm for 5 minutes at 4° C. BAL samples were used to count the total cell number and to perform cytospins (shandon, Pontoise). Cell types were identified by morphological criteria after Hemacolor (Merck) staining.
Mice were sensitized and challenged with ovalbumin as described in protocol assays above. The mice were distributed in groups of 5-6 animals that were treated twice daily with 7.5 to 60 mg/Kg of anti-SYK/KIT drugs (PO).

[2] = system: murine model of arthritis; test: K/BxN serum mouse model of rheumatoid arthritis: ankle thickening and arthritis score; assay type: in vivo, C57Bl/6 mice; conditions: 50 mg/kg b.i.d.
Protocol: K/B×N serum pools were prepared from arthritic mice at 8 weeks of age. The mice were pre-treated with SYK inhibitors by two per os administration for two days before induction of arthritis. Arthritis was induced in the C57Bl/6 mice (8 weeks of age) by intraperitoneal injection (7.5 μl serum per g weight) at days 0 and 2.
The treatment with SYK inhibitors was continued for 13 days. The control mice were injected with solvent before the induction of arthritis and during the course of the disease. The compounds were dissolved in a solution containing 10% of Tween 80 and 10% 1-2 propandiol. It was prepared before administration.
Ankle thickening measure, being defined as the difference in ankle thickness from the day 0, was measured using a precision calliper. Arthritis/clinical score was defined by sum of scores of each lim (0 no disease; 1 mild swelling of paw or of just of few digits; 2 clear joint inflammation; 3 severe joint inflammation) maximum score=12.
K/B×N was a murine model of spontaneous rheumatoid arthritis that mimics many of the clinical and histological features of human disease with synovitis predominantly in the distal small joints. Arthritis was induced by intraperitoneal injection of arthritis serum of K/B×N mice at days 0 and 2 as described in protocol assays above. Compound 001 was tested at 15 and 50 mg/kg/day b.i.d. and compared with Masitinib at 50 mg/kg/day b.i.d., an AB Science drug candidate for treating rheumatoid arthritis (Arthritis Res Ther., (2009), 11(3):R95). Ankle thickening and arthritis score were used to monitor the in vivo activity of the compounds.

[3] = system: Salmonella typhimurium strain TA100; conditions: Salmonella typhimurium
Protocol: (§1) Mutagenic activity of test compounds and their metabolites (produced by rat liver S9 fraction) was evaluated in the Salmonella typhimurium strains TA100 and TA98 according to the Ames assay (Toxicology in vitro, (2001), 15: 105-114). […] The results are expressed as a mutagenicity ratio in comparison to solvent controls.
(§2) The results are expressed as a ratio of the number of colonies over the number of colonies in the negative control (DMSO).

[4] = system: Salmonella typhimurium strain TA98; test: AMES mutagenic assay, TA98 strain; conditions: TA98, presence of S-9, 1 μg per well (positive control)
Protocol: as §1, §2

[5] = biological target: c-Ret mut; test: HTRF kinase assay, c-Ret mut; assay type: biochemical; conditions: enzymatic determination
Protocol: Most of the kinases tested in this study were cloned, expressed and purified in the facilities of the inventors. They were expressed either as N-terminus hexahistidine-, hexahistidine-asparagine- or GST-tagged enzymes in a baculovirus or in a Colibacille expression system. Remaining enzymes (JAKs) were purchased from Millipore or Proqinase. For each enzyme, steady state kinetic parameters were determined and validated with known inhibitors.
The analysis of the effect of compounds on kinase activity was assessed with the HTRF® KinEASE assay (Cisbio International), an immuno-assay based on the quantification of the level of phosphorylation of a biotinylated peptide substrate using anti-phospho-specific antibody labeled with Europium (Eu^3+) cryptate. This assay comprises two steps: —an enzymatic step, during which the peptide substrate, the kinase, ATP, Mg^2+ and/or Mn^2+ are incubated with varying concentration of drug (from 0 to 10 μM); —a detection step, at the end of the reaction (stopped by addition of EDTA which chelates Mg^2+), the antibody anti-phospho peptide-Eu^3+ (emission 620 nm) and streptavidin XL-665 (emission 665 nm) are added to the reaction mix. […] Results are expressed in delta fluorescence (DF) unit defined as follow DF %=[(ratio−ratio blank)/(ratio blank)]*100, where ratio=(665 nm/620 nm)*10^4. […]

[6] = system: primary human adult cardiomyocytes; test: WST-1 cell survival/proliferation assay on human cardiomyocytes; assay type: cell-based; conditions: Human Cardiac Myocyte
Protocol: WST-1 cell survival/proliferation assay (Roche Diagnostic ref No 1644807) was performed on both primary human adult cardiomyocytes and rat neonatal cardiac myocytes.
Human cardiomyocytes were isolated from normal human ventricle tissue of the adult heart and were able to proliferate for a number of passage. Neonatal ventricular Clonetics® Rat Cardiac Myocytes (P1-3) retained their contractile property and were electrophysiologically active in culture. 1.10^4 primary rat cells or 2-2.5 10^4 adult human cells were plated per well of a 96 wells plates. The cells were allowed to adhere to the plates for 5 days before drug treatment. Treatment was initiated by addition of a 2× drug solution of ½ serial dilutions ranging from 0 to 10 μM. Cells were grown for 48 h at 37° C. and then incubated with 10 μl/well of WST-1 reagent for 4 h at 37° C. The amount of formazan dye formed was quantified by its absorbance at 450 nm using a scanning multiwell spectrophotometer (MultiSkan MS, Thermo-LabSystems, France). A blank well without cells was used as a background control for the spectrophotometer and all assays were performed in triplicate.

[7] = system: Murine bone marrow mast cells (BMMCs); test: IgE-mediated mast cell degranulation assay (β-hexosaminidase release); assay type: cell-based, C57BL/6J mice
Protocol: In vitro mast cell degranulation assay monitored by released of β-hexosaminidase. Murine bone marrow mast cells (BMMCs) are obtained by flushing bone marrow cells from the femurs of C57BL/6J mice, then cultured for 3-4 weeks in RPMI containing mouse recombinant IL-3 (30 ng/ml). RBL-2H3 is a rat basophile cell line maintained in monolayer culture in EMEM supplemented with 20% FCS, 1 mM Glutamine and 1× antibiotics. Cells were sensitized overnight with 0.2 μg/ml anti-DNP-IgE (Sigma-Aldrich D8406). […] After incubation 90 min at 37° C., the reaction was quenched by addition of 100 μl of sodium carbonate buffer (0.1M Na2CO3/NaHCO3 pH 10.0). β-hexosaminidase activity was quantified by reading plate absorbance at 405 nm with reference at 620 nm using a PolarSTAR reader plate (BMG labech).
The activity of anti-SYK compounds was tested in an IgE-mediated mast cell degranulation assay. SYK has been identified to be critical for the initiation of mast cell mediator release following the aggregation of FcεRI.

[8] = Experiment #1, 2 × 30 mg/kg/day PO

IC50 [5] | Compound | Percentage of Eosinophils recruitment in Bronchio-alveolar lavage (BAL) ([1]; Experiment #1, 2 × 7.5 mg/kg/day PO) | Percentage of Eosinophils recruitment in Bronchio-alveolar lavage (BAL) ([1]; Experiment #1, 2 × 25 mg/kg/day PO) | Percentage of Eosinophils recruitment in Bronchio-alveolar lavage (BAL) [1, 8] | Percentage of Eosinophils recruitment in Bronchio-alveolar lavage (BAL) ([1]; Experiment #2, 2 × 30 mg/kg/day PO) | Ankle Thickening Score [2] | Arthritis Score [2] | Ratio treated/solvent [3] | Ratio treated/solvent [4] | % cell viable at 1 μM, Hu-CM ([6]; 1 μM) | IC50 ([6]; 48 h, read-out: Drug-induced cytotoxicity IC50, Hu-CM) | β-hexosaminidase activity (% control untreated cells) ([7]; 0.01 μM) | β-hexosaminidase activity (% control untreated cells) ([7]; 0.1 μM) | β-hexosaminidase activity (% control untreated cells) ([7]; 1 μM)
 | Cc1ccc(NC(=O)c2ccc(CN3CCN(C)CC3)cc2)cc1Nc1nc(-c2cccnc2)cs1 [Masitinib] | −15% | −35% | −56% | −47% | −27% P < 0.05 | −15% |  |  |  |  |  |  | 
 | Nc1ccc2cc3ccccc3cc2c1 [Compound 2-AM, 2-Anthramine, reference compound] |  |  |  |  |  |  | 18.1 | 138.1 |  |  |  |  | 
0.5 µM | COc1cc(Nc2ncc(F)c(Nc3ccc4c(n3)NC(=O)C(C)(C)O4)n2)cc(OC)c1OC [Compound R406] |  |  | −31% |  |  |  |  |  | −18% | 2.6 µM | 78 ± 11% | 16 ± 6% | 3 ± 3%
